Data on two compounds can be found in patent publication US10253274B2, “Compounds and methods for inhibiting corrosion in hydrocarbon processing units” (General Electric Company, priority 2012, dated 2019).

Like-named read-outs stand apart in the source and are kept apart here.

One data set is described as follows: pKa of the amine. Format: physicochemical. From the text:
Another factor indicative of the overall efficiency of a given amine is the logarithm of the acid dissociation constant, pKa. Generally, amines with higher pKa values are more efficient neutralizers. Accordingly, in another embodiment, the treatment composition may comprise an amine with a pKa equal to or greater than about 5.0.

Data set [1] is described as follows: Amine-HCl salt precipitation potential index (Salt PPI) relative to ammonia salt. It counts as physicochemical. As to conditions: average over 225 to 300° F., ammonia benchmark = 1.0. From the text:
Without limiting this specification to any particular theory of operation, the overall efficiency of a given amine may be predicted upon assessment of several factors. One such factor is the amine-HCl salt precipitation potential index (“Salt PPI”). The Salt PPI may also be known by those in the art as the salt volatility index. These indices are merely a comparison of the precipitation potential of the amine salt to the salt of a typical neutralizing compound used in hydrocarbon refining, ammonia.
Salt PPI may be calculated from the equation: […]
If one were to substitute the vapor pressure of ammonia for the vapor pressure of the amine in the equation, the Salt PPI would be 1.0. Effective amines are those that are as good, if not better than the typical additive, ammonia. Thus, effective amines would have a Salt PPI of equal to or less than 1.0. Other neutralizers commonly used in hydrocarbon refining are trimethylamine and N-methylmorpholine.

Data set [2] is described as follows: Neutralization efficiency by two-phase titration (pH at amine titrant concentration). Format: physicochemical. The following applies: 100° C.; for Neutral. Efficiency pH at 250 ppm: 250 ppm amine titrant; for Neutral. Efficiency pH at 500 ppm: 500 ppm amine titrant; for Neutral. Efficiency pH at 1000 ppm: 1000 ppm amine titrant. The protocol: Several amines were tested to determine their efficiencies in neutralizing acidic species and reducing deposits of hydrochloride and amine salts. The neutralization efficiency of these amines was tested using two-phase titration. For each amine tested, a titrand (100 ml) was placed in a flask. The titrand was designed to simulate an initial condensate and comprised 90 vol % naphtha and 10 vol % acidic water. The titrand was heated to 100° C. and maintained at that temperature while amine titrant was added to the flask.
A second set of tests were performed using some of the effective amines above. Additional tertiary amines were also tested and found to be effective. The additional tertiary amines were N-methyl piperidine, 2-dimethylamino 2-methyl 1-propanol (“DMAMP”) in an azeotropic solution comprising 80 wt % amine, N,N,N′,N′-tetramethyldiamino methane (“TMMD”), dimethyl tertiary butanolamine (“DMTBA”), and dimethyl methoxypropylamine (“DMMOPA”). The neutralization efficiency of these amines was tested using two-phase titration. For each amine tested, a titrand (100 ml) was placed in a flask. The titrand was designed to simulate an initial condensate and comprised 90 vol % naphtha and 10 vol % acidic water. The titrand was heated to 100° C. and maintained at that temperature while amine titrant was added to the flask. The tests were repeated 3 times in the second set of tests. The data in Table 2 are the averages of the 3 repeated tests.

A short description of the next data set: Boiling point. As to conditions: Table 2.
Setting [3] is: Table 2, second set, averages of 3 repeated tests.

Take `CN1CCCC1` [N-methylpyrrolidine]: in “pKa of the amine” (Table 1, read-out: pKa), the pKa was 10.3. The “Salt PPI” value in data set [1] (Table 1) is recorded as <0.1; in data set [1] (Table 2) it was 0.10. Moreover, the “Neutral. Efficiency pH at 250 ppm” value was determined as 2.2 in data set [2] (Table 1, first set of tests) and 2.2 in data set [2] (setting [3]). Further, the “Neutral. Efficiency pH at 500 ppm” value in data set [2] (Table 1, first set of tests) stood at 6.8; in data set [2] (setting [3]), 6.8. Besides, the “Neutral. Efficiency pH at 1000 ppm” value in data set [2] (Table 1, first set of tests) was found to be 8.1; in data set [2] (setting [3]), 8.1. In addition, the “Solubility Oil/Water” value in the data set “Solubility Oil/Water” (Table 1) is reported as “Water”; in “Solubility Oil/Water” (Table 2) it was “Water”; in “Solubility Oil/Water” (Table 3, exemplary treatment composition), “Water”; in “Solubility Oil/Water” (Table 4, exemplary treatment composition), “Water”. Besides, in the data set “Boiling point”, the “Boiling Point” value was 81 °C.

With `CN(C)C` [Trimethylamine (TMA), Trimethylamine, reference compound], the pKa was 9.76 in “pKa of the amine” (Table 1, read-out: pKa) and 9.76 in the data set “pKa of the amine” (Table 2). For the same compound, the “Salt PPI” value in data set [1] (Table 1) and in data set [1] (Table 2) was 0.10 throughout. In addition, the “Neutral. Efficiency pH at 250 ppm” value in data set [2] (Table 1, first set of tests) came to 2.6; in data set [2] (setting [3]) it was 2.6. Moreover, the “Neutral. Efficiency pH at 500 ppm” value in data set [2] (Table 1, first set of tests) was determined as 8.0; in data set [2] (setting [3]), 8.0. For the same compound, the “Neutral. Efficiency pH at 1000 ppm” value in data set [2] (Table 1, first set of tests) amounted to 8.8; in data set [2] (setting [3]), 8.8. The “Solubility Oil/Water” value in “Solubility Oil/Water” (Table 1) and in the data set “Solubility Oil/Water” (Table 2) was “Water” in each case. Also, the “Boiling Point” value in the data set “Boiling point” was found to be 2.87 °C.
